Here are results for 20 compounds from patent publication US12637471B2, “Heterocyclic compounds, compositions, methods of preparation and uses thereof” (Organon R&D Finland Ltd, priority 2021, dated 2026).

Each structure is given as a SMILES string.

Assay type in all cases: biochemical
The target of assay [1] is T1, Recombinant human AKR1C3 (17β-HSD5) protein (Homo sapiens, UniProt P42330).
T1 construct: made in house; host or cells: E. coli
T1 sequence (P42330 1-323): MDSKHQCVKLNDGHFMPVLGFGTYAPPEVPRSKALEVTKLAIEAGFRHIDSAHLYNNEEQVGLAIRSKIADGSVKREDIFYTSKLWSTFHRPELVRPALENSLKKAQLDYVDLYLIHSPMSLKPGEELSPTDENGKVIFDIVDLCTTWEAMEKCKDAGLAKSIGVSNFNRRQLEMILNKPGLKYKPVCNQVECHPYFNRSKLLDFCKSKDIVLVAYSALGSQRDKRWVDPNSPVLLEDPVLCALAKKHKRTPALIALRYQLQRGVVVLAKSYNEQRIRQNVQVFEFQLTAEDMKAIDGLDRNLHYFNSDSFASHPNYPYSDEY
Kind of assay: Inhibition of AKR1C3 (17β-hydroxysteroid dehydrogenase type 5) enzyme, fluorescence assay. Particulars: inhibitor at 500 nM. The procedure, abridged:
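E. coli-expressed human AKR1C3 (27 nM) in 20 mM KH2PO4, 1 mM EDTA, pH 7.4, with 1 μM pyranoquinolinone ketone substrate, 1 mM NADPH and inhibitor at 500 nM, 1% DMSO, 60–120 min at RT. Fluorescent alcohol product (ex 420/em 510 nm) quantified against standards; inhibition derived from conversion percentages.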

Assay [2] deals with T2, Recombinant human aldo-keto reductase family 1 member C2 (AKR1C2) protein (Homo sapiens, UniProt P52895).
T2 construct: made in house; host or cells: Sf-9 insect cells (baculovirus)
T2 sequence (P52895 1-323): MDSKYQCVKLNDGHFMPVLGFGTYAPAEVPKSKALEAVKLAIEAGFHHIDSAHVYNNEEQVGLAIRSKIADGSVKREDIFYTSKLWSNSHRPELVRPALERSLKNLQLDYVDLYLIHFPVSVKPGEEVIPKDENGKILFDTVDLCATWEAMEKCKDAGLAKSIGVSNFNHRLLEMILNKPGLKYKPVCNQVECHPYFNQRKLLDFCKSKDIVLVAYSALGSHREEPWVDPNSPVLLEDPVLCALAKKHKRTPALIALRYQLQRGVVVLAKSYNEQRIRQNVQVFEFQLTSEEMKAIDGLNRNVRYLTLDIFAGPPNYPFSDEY
The assay can be described thus: Inhibition of the aldo-keto reductase family 1 member C2, 3H-dihydrotestosterone conversion. Particulars: inhibitor at 10 μM. Summed up: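 Sf-9-expressed enzyme (13.6 nM) incubated 45 min at 37 °C in 20 mM KH2PO4 pH 7.4 with 1 mM NADPH, 6.25 nM [3H]dihydrotestosterone and 10 μM compound (1% DMSO). After TCA stop, substrate and 5α-androstane-3α,17β-diol resolved by UPLC with radio-detection; inhibition from percent conversion.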

The target of assay [3] is T3, 17β-Hydroxysteroid Dehydrogenase Type 2 Enzyme (17β-HSD2) (Homo sapiens, UniProt P37059).
T3 construct: made in house; host or cells: Sf-9 insect cells (baculovirus)
T3 sequence (P37059 1-387): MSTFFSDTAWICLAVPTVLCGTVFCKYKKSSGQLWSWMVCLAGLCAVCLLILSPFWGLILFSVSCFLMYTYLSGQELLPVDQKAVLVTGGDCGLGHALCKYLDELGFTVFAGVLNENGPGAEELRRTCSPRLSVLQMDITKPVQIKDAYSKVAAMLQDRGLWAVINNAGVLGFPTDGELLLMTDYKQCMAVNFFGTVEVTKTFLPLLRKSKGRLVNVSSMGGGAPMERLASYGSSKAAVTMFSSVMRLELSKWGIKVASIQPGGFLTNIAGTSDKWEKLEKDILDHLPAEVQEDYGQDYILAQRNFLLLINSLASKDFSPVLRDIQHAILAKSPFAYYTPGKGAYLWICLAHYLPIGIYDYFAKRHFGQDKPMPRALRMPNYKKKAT
The assay can be described thus: Inhibition of the 17β-hydroxysteroid dehydrogenase type 2 enzyme, 3H-testosterone conversion. The note with it: inhibitor at 10 μM. Summed up: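 Recombinant human 17β-HSD2 (Sf-9/baculovirus; 105 nM) incubated with 56.25 nM ³H-testosterone and 1 mM NAD in 20 mM KH2PO4 pH 8.5, 1 mM EDTA, 1% DMSO, 30 min at RT, inhibitor 10 μM. Reaction stopped with TCA; conversion to ³H-androstenedione by radio-UPLC gives percent inhibition.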

Turning to `CC(O)C1CCN(C(=O)N2CCC(=C(C#N)c3ccc(OC(F)(F)F)cc3)CC2)CC1` (stereo not drawn) [Compound 124, 2-(1-(4-(1-hydroxyethyl)piperidine-1-carbonyl)piperidin-4-ylidene)-2-(4-(trifluoromethoxy)phenyl)acetonitrile], the inhibition (commonly the relative decrease from the control value, in per cent) at 0.5 µM in assay [1] is 91%. The inhibition at 10 µM is 4% in assay [2] and 9% in assay [3].
In the same order, the values of `CCOC1CCN(C(=O)N2CCC(=C(C#N)c3ccc(Cl)s3)CC2)CC1` [Compound 125, 2-(5-chlorothiophen-2-yl)-2-(1-(4-ethoxypiperidine-1-carbonyl)piperidin-4-ylidene)acetonitrile] are 97%, 18% and 17%.
The corresponding values for `N#CC(=C1CCN(C(=O)N2CCC(S(N)(=O)=O)CC2)CC1)c1ccc(Cl)cc1` [Compound 126, 1-(4-((4-chlorophenyl)(cyano)methylene)piperidine-1-carbonyl)piperidine-4-sulfonamide] are 97%, 10% and 2%.
For the compound `N#CC(=C1CCN(C(=O)N2CCC(O)CC2)CC1)c1ccc(C(F)(F)F)cc1` [Compound 127, 2-(1-(4-hydroxypiperidine-1-carbonyl)piperidin-4-ylidene)-2-(4-(trifluoromethyl)phenyl)acetonitrile], the inhibition at 0.5 µM in assay [1] came to 96%. Moreover, the inhibition at 10 µM is -6% in assay [2] and 5% in assay [3].
In the same order, the values of `CCOC1CCN(C(=O)N2CCC(=C(C#N)c3ccc(C(F)(F)F)cc3)CC2)CC1` [Compound 128, 2-(1-(4-ethoxypiperidine-1-carbonyl)piperidin-4-ylidene)-2-(4-(trifluoromethyl)phenyl) acetonitrile] are 93%, 2% and 17%.
As for `CCOC1CCN(C(=O)N2CCC(=C(C#N)c3cccc(Cl)c3)CC2)CC1` [Compound 129, 2-(3-chlorophenyl)-2-(1-(4-ethoxypiperidine-1-carbonyl)piperidin-4-ylidene)acetonitrile], in assay [1], the inhibition at 0.5 µM was 98%. Also, the inhibition at 10 µM stood at 11% in assay [2] and 5% in assay [3].
The corresponding values for `CC(=O)N1CCN(C(=O)N2CCC(=C(C#N)c3ccc(Cl)cc3)CC2)CC1` [Compound 130, 2-(1-(4-acetylpiperazine-1-carbonyl)piperidin-4-ylidene)-2-(4-chlorophenyl)acetonitrile] are 97%, 0% and 12%.
For the compound `N#CC(=C1CCN(C(=O)N2CCC(CCO)CC2)CC1)c1ccc(Cl)cc1` [Compound 131, 2-(4-chlorophenyl)-2-(1-(4-(2-hydroxyethyl)piperidine-1-carbonyl)piperidin-4-ylidene) acetonitrile], the inhibition at 0.5 µM in assay [1] amounted to 98%. Besides, the inhibition at 10 µM is 8% in assay [2] and 13% in assay [3].
In the case of `N#CC(=C1CCN(C(=O)N2CCC(CCCO)CC2)CC1)c1ccc(Cl)cc1` [Compound 132, 2-(4-chlorophenyl)-2-(1-(4-(3-hydroxypropyl)piperidine-1-carbonyl)piperidin-4-ylidene)acetonitrile], in assay [1], the inhibition at 0.5 µM was determined as 95%. The values for the inhibition at 10 µM in assay [2] and in assay [3] were 8% and 17%, respectively.
Consider `CC(C)OC1CCN(C(=O)N2CCC(=C(C#N)c3ccc(Cl)cc3)CC2)CC1` [Compound 133, 2-(4-chlorophenyl)-2-(1-(4-isopropoxypiperidine-1-carbonyl)piperidin-4-ylidene)acetonitrile], for which the inhibition at 0.5 µM in assay [1] was 97%. In addition, the inhibition at 10 µM amounted to 16% in assay [2] and 23% in assay [3].
For `CCCOC1CCN(C(=O)N2CCC(=C(C#N)c3ccc(Cl)cc3)CC2)CC1` [Compound 134, 2-(4-chlorophenyl)-2-(1-(4-propoxypiperidine-1-carbonyl)piperidin-4-ylidene)acetonitrile], the inhibition at 0.5 µM in assay [1] came out at 98%. In addition, the inhibition at 10 µM in assay [2] amounted to 13%; in assay [3] it was 12%.
The corresponding values for `N#CC(=C1CCN(C(=O)N2CCC(C(F)(F)F)CC2)CC1)c1ccc(Cl)cn1` [Compound 135, 2-(5-chloropyridin-2-yl)-2-(1-(4-(trifluoromethyl)piperidine-1-carbonyl)piperidin-4-ylidene)acetonitrile] are 92%, 3% and 4%.
The corresponding values for `Cn1ncc2cccc(C(C#N)=C3CCN(C(=O)N4CCc5nocc5C4)CC3)c21` [Compound 136, 2-(1-methyl-1H-indazol-7-yl)-2-(1-(4,5,6,7-tetrahydroisoxazolo[4,3-c]pyridine-5-carbonyl)piperidin-4-ylidene)acetonitrile] are 99%, 6% and 26%.
With `CCOC1CCN(C(=O)N2CCC(=C(C#N)c3ccc(F)cc3F)CC2)CC1` [Compound 137, 2-(2,4-difluorophenyl)-2-(1-(4-ethoxypiperidine-1-carbonyl)piperidin-4-ylidene)acetonitrile], the inhibition at 0.5 µM in assay [1] stood at 97%. Also, the inhibition at 10 µM was 18% in assay [2] and 6% in assay [3].
As to `N#CC(=C1CCN(C(=O)N2CCc3nocc3C2)CC1)c1cccc2[nH]ncc12` [Compound 138, 2-(1H-indazol-4-yl)-2-(1-(4,5,6,7-tetrahydroisoxazolo[4,3-c]pyridine-5-carbonyl)piperidin-4-ylidene)acetonitrile], in assay [1], the inhibition at 0.5 µM was found to be 98%. Also, the results for the inhibition at 10 µM in assay [2] and in assay [3] were 31% and 13%, respectively.
The corresponding values for `CC(C)OC1CCN(C(=O)N2CCC(=C(C#N)c3cccc(Cl)c3)CC2)CC1` [Compound 139, 2-(3-chlorophenyl)-2-(1-(4-isopropoxypiperidine-1-carbonyl)piperidin-4-ylidene)acetonitrile] are 93%, 8% and 27%.
Take `N#CC(=C1CCN(C(=O)N2CCC(CCO)CC2)CC1)c1cccc(Cl)c1` [Compound 140, 2-(3-chlorophenyl)-2-(1-(4-(2-hydroxyethyl)piperidine-1-carbonyl)piperidin-4-ylidene)acetonitrile]: the inhibition at 0.5 µM in assay [1] was determined as 96%. In addition, the figures for the inhibition at 10 µM in assay [2] and in assay [3] were 21% and 23%, respectively.
In the same order, the values of `N#CC(=C1CCN(C(=O)N2CCc3nocc3C2)CC1)c1ccc(Cl)cc1` [Compound 141, 2-(4-chlorophenyl)-2-(1-(4,5,6,7-tetrahydroisoxazolo[4,3-c]pyridine-5-carbonyl)piperidin-4-ylidene)acetonitrile] are 98%, 33% and 7%.
In the same order, the values of `N#CC(=C1CCN(C(=O)N2CCC(CCCO)CC2)CC1)c1ccc(F)cc1` [Compound 142, 2-(4-fluorophenyl)-2-(1-(4-(3-hydroxypropyl)piperidine-1-carbonyl)piperidin-4-ylidene)acetonitrile] are 91%, 3% and 4%.
The corresponding values for `CC(=O)N1CCN(C(=O)N2CCC(=C(C#N)c3ccc(F)cc3)CC2)CC1` [Compound 143, 2-(1-(4-acetylpiperazine-1-carbonyl)piperidin-4-ylidene)-2-(4-fluorophenyl)acetonitrile] are 93%, 9% and 7%.
